Experimental data published in patent US20200087340A1, “LIF/LIFR ANTAGONIST IN ONCOLOGY AND NONMALIGNANT DISEASES” (Evestra, Inc., priority 2018, published 2020).

Key:
NCI-H332M = assay: NCI-60 screening, Non-Small Cell Lung Cancer; format: cell-based, human
SF-539 = assay: NCI-60 screening, CNS Cancer; format: cell-based, human
OVCAR-5 = assay: NCI-60 screening, Ovarian Cancer; format: cell-based, human
KM12 = assay: NCI-60 screening, Colon Cancer; format: cell-based, human
MDA-MB-435 = assay: NCI-60 screening, Melanoma; format: cell-based, human
UACC-257 = assay: NCI-60 screening, Melanoma; format: cell-based, human
DU-145 = assay: NCI-60 screening, Prostate Cancer; format: cell-based, human
TK-10 = assay: NCI-60 screening, Renal Cancer; format: cell-based, human
[1] = system: human endometrial stromal cells (HESC); assay: Decidualization assay, phalloidin staining of actin cytoskeleton; format: cell-based
Experimental: Decidualization studies: The above compounds were investigated originally for the treatment of endometriosis. The compounds were tested in a decidualization assay using human endometrial stromal fibroblast (HESC) cells. In preparation for the possibility of embryonic attachment, the stromal cells in the endometrium undergo extensive waves of proliferation, remodeling, and terminal differentiation that transforms the endometrium into an endocrine gland, called decidua. This transformation is called decidualization and it is under the control by ovarian hormones.
The level of apoptosis increases from the proliferative phase through menstrual cycle and peaks at menses. […] However if the cells are subjected to conditions that induce decidualization, stromal cells will begin to differentiate instead of undergoing apoptosis.
Rationale of this assay is described above in mechanism of action studies section. Briefly, human stromal endometrial cells were plated in the presence and absence of progesterone and allow undergoing decidualization. The cells treated with test compounds of different concentrations and stained for actin cytocketal morphology using phalloidin staining and monitored under fluorescent microscope.

CCRF-CEM = assay: NCI-60 screening, Leukemia; format: cell-based, human
SN12C = assay: NCI-60 screening, Renal Cancer; format: cell-based, human
HOP-92 = assay: NCI-60 screening, Non-Small Cell Lung Cancer; format: cell-based, human
MALME-3M = assay: NCI-60 screening, Melanoma; format: cell-based, human
BT-549 = assay: NCI-60 screening, Breast Cancer; format: cell-based, human
SK-MEL-28 = assay: NCI-60 screening, Melanoma; format: cell-based, human
NCI-H226 = assay: NCI-60 screening, Non-Small Cell Lung Cancer; format: cell-based, human
SF-268 = assay: NCI-60 screening, CNS Cancer; format: cell-based, human
NCI-H522 = assay: NCI-60 screening, Non-Small Cell Lung Cancer; format: cell-based, human
HT29 = assay: NCI-60 screening, Colon Cancer; format: cell-based, human
T47D cells = assay: Soft agar colony formation assay; format: cell-based, human; settings: 100 nM concentration
Experimental: Colonies of cancer cells formed in soft agar in the presence and absence of the testing compounds is a standard assay to interpret in-vitro tumorigenic potential in the basal layer. Agar was prepared by mixing 1% DNA grade agar melted and cooled to 40° C. with an equal volume of (2×) Dulbecco's Modified Eagle's Medium (DMEM) to obtain 0.5% agar that was dispersed in a 6-well plate and allowed to solidify. A total of 0.6% agar was prepared in RPMI medium and mixed together with T47D cells (0.5×10^6 cells/mL) and immediately plated on the basal layer in the presence or absence of testing compounds. The cultures were incubated at 37° C. in a CO2 incubator for 2 weeks, and colonies were stained with 0.005% crystal violet and observed under a light microscope.

NCI/ADR-RES = assay: NCI-60 screening, Ovarian Cancer; format: cell-based, human
[2] = system: MDA-MB-231 (TNBC) Xenograft; assay: Tumor xenograft study, MDA-MB-231; format: in vivo, mice
Experimental: Uniform suspensions of human breast cancer MDA-MB-231 and human ovarian cancer IGROV1 cells (2×10^6) in 100 μL (0.02 carboxymethyl cellulose in phosphate buffered saline) were injected subcutaneously into the right and left flanks of 4- to 5-week-old female athymic nude mice (Charles River Laboratories). After 10 days, when the tumor […] reaches 100 mm^3, the mice were randomly allocated to 3 groups of each containing 6 animals. […] All drug was suspended in PBS followed by sonication (15 seconds with an intermittent interval of 5 seconds) for 1 minute. Tumors were allowed to reach palpability before drug intervention. Tumor size was measured every 3 days using digital Vernier Calipers and tumor volume was calculated using the ellipsoid formula [D×(d2)]/2, where D is the large diameter of the tumor and d represents the small diameter. On day 31, the mice were euthanized and tumors were harvested for protein and gene expression studies. […] FIG. 6B depicts a graph of tumor volume vs. time for the administration of EC300 at 2.5 mg/kg twice weekly in the MDA-MB-231 (TNBC) Xenograft. […] FIG. 7 depicts a graph of tumor volume vs. time for the administration of EC300 at 5 mg/kg 5 days per week in the IGROV1 (Ovarian) Xenograft. […] STAT3 phosphorylation is reduced in tumors that underwent treatment compared to control which is an indication of LIF downstream target.

SNB-19 = assay: NCI-60 screening, CNS Cancer; format: cell-based, human
HCT-116 = assay: NCI-60 screening, Colon Cancer; format: cell-based, human
CAKI-1 = assay: NCI-60 screening, Renal Cancer; format: cell-based, human
[3] = system: Patient derived tumor (melanoma); assay: Immunohistochemistry analysis of treated patient derived tumor; format: cell-based, human; settings: 10 nM and 1 uM for 5 days
Experimental: Patient derived tumor (melanoma) was treated with the compounds at 10 nM and 1 uM for 5 days in RPMI medium and harvested on day 6 using established protocol and immunohistochemistry was performed for different antibodies including p53, LIF, MDM2, pSTAT3, Ki67.

SF-295 = assay: NCI-60 screening, CNS Cancer; format: cell-based, human
SK-MEL-2 = assay: NCI-60 screening, Melanoma; format: cell-based, human

In the case of `C#CC(F)(F)[C@]1(O)CCC2C3CCC4=CC(=O)CCC4=C3C(c3ccc(C4CC4)cc3)C[C@@]21C` (stereo partly drawn) [EC330, 17α-(1,1-difluoro-2-propyn-1-yl)-17β-hydroxy-11β-[4-p-(cyclopropyl)phenyl]estra-4,9-dien-3-one], the “TGI (log10TGI)” value (NCI-H332M) is reported as >−4.00, the “TGI (log10TGI)” value (SF-539) is reported as −7.77 and the “TGI (log10TGI)” value (OVCAR-5) is reported as −5.25. The “TGI (log10TGI)” value (KM12) was −5.91, the “TGI (log10TGI)” value (MDA-MB-435) was −5.03 and the “TGI (log10TGI)” value (UACC-257) was >−4.00. For the same molecule, the “TGI (log10TGI)” value (DU-145) was −4.75, the “TGI (log10TGI)” value (TK-10) was −4.91 and the “actin cytoskeletal disruption (phalloidin staining)” value [1] was “cytoskeletal disruption”. For the same molecule, the “TGI (log10TGI)” value (CCRF-CEM) was <−8.00, the “TGI (log10TGI)” value (SN12C) was −4.58 and the “TGI (log10TGI)” value (HOP-92) was <−8.00. For the same molecule, the “TGI (log10TGI)” value (MALME-3M) was <−8.00, the “TGI (log10TGI)” value (BT-549) was −5.30 and the “TGI (log10TGI)” value (SK-MEL-28) was −5.43. For the same molecule, the “TGI (log10TGI)” value (NCI-H226) was −5.04, the “TGI (log10TGI)” value (SF-268) was −6.43 and the “TGI (log10TGI)” value (NCI-H522) was <−8.00. The “TGI (log10TGI)” value (HT29) was −6.72, the colonies formed (T47D cells) was “complete inhibition or no colonies were formed” and the “TGI (log10TGI)” value (NCI/ADR-RES) was −5.41. For the same molecule, the “apoptosis in xenograft tumors” value ([2]; MDA-MB-231 breast cancer xenograft tumors) was “induced apoptosis dose dependently”, the tumor growth ([2]; human triple negative breast cancer (TNBC) model) was “significantly reduced” and the “TGI (log10TGI)” value (SNB-19) was >−4.00. The “TGI (log10TGI)” value (HCT-116) was −4.55, the “TGI (log10TGI)” value (CAKI-1) was −6.41 and the “apoptosis, p53, MDM2, LIF mediated STAT3 phosphorylation (immunohistochemistry)” value [3] was “induce apoptosis and restore p53 by inhibiting MDM2 and LIF mediated STAT3 phosphorylation”. For the same molecule, the “TGI (log10TGI)” value (SF-295) was <−8.00 and the “TGI (log10TGI)” value (SK-MEL-2) was −5.19.
